{"source": "patent US9119855B2", "about": "“Compositions and methods for treatment of the side-effects associated with administration of cancer chemotherapeutic agents” (Asymmetric Therapeutics, LLC, priority 2008, dated 2015)", "key": {"[1]": {"conditions": "Van Acker et al.; cited from earlier work"}, "[2]": {"conditions": "Van Acker et al.; cited from earlier work", "remark": "listed apart in the source"}, "in vitro": {"experiment": "in vitro", "assay_type": "cell-based", "conditions": "human", "experimental": "The efficacy of certain compounds as protective agents when co-administered with 5-FU was tested in cell culture. […] The relative viability of the cells was determined after 120 hours."}, "Caco-2 cells": {"system": "Caco-2 cells", "experimental": "5-FU was dissolved in water and added to media at 10 μM, the clinically-relevant dose. Media was changed every day with reapplication of 5-FU. After 72 hr, the cell viability was assessed and is expressed relative to a vehicle control (Caco-2, n=3)."}, "primary human skin cells": {"system": "primary human skin cells", "experimental": "The concentration of 5-FU was also 0.01 mM in these trials. […] The relative viability of the cells was determined after 48 hours (FIG. 7) or 72 hours (FIG. 8)."}, "[3]": {"conditions": "acidic / low pH, orotate not charged (Robinson et al.); cited from earlier work"}, "[4]": {"system": "primary human epithelial cells of the gingiva (HEGP)", "experiment": "Protection of primary gingival epithelial cells from 5-FU toxicity, 72 hours (FIG. 9)", "assay_type": "cell-based", "description": "GI columnar cells rely for growth predominantly on de novo pyrimidine synthesis from nutrients in the GI contents. Squamous cells of the oropharynx rely for growth predominantly on salvage of cell constituents of the overlying cells closer to the tissue surface."}}, "note": "Entries after “also recorded” stand apart in the source; their conditions may differ. Read-outs that look alike come from different tables or passages of the source."}
{"smiles": "Nc1nc(O)nc2nc(O)[nH]c12", "note": "[2,8-dihydroxy adenine]", "values": [{"measurement": "solubility", "setting": "[1]", "value": "poorly soluble"}, {"measurement": "renal toxicity", "setting": "[2]", "value": "can cause renal stones"}]}
{"smiles": "O=c1[nH]cc(F)c(=O)[nH]1", "note": "[5-FU, 5-fluorouracil, reference compound]", "values": [{"measurement": "viability at 120 h, 0.01 mM", "setting": "in vitro", "value": "< 50", "unit": "%"}]}
{"smiles": "Nc1ncnc2nc[nH]c12", "note": "[adenine]", "values": [{"measurement": "cytoprotection against 10 μM 5-FU toxicity", "setting": "Caco-2 cells", "value": "progressively greater cytoprotection"}, {"measurement": "excess of protective nucleobase required for quantitative protection", "setting": "Caco-2 cells; adenine alone, vs 10 μM 5-FU", "value": "~100", "unit": "×"}]}
{"smiles": "O=C(O)c1cc(=O)[nH]c(=O)[nH]1", "note": "[orotate]", "values": [{"measurement": "impact on skin (squamous) cell response to 5-FU exposure", "setting": "primary human skin cells", "value": "does not impact"}, {"measurement": "absorption into the systemic circulation", "setting": "[3]", "value": "better absorbed; also recorded: absorbed at a higher rate"}, {"measurement": "cytoprotection against 10 μM 5-FU toxicity", "setting": "Caco-2 cells", "value": "statistically insignificant cytoprotection"}, {"measurement": "effect of adding orotate on cytoprotection by adenine", "setting": "Caco-2 cells; orotate 1.25 mM with adenine 0.0125 mM through 1.25 mM, 10 μM 5-FU (FIG. 5)", "value": "did not initially attenuate 5-FU toxicity beyond the cytoprotection provided by adenine alone"}, {"measurement": "effect of adding orotate on cytoprotection by adenine", "setting": "Caco-2 cells; still higher concentrations of orotate with adenine 2.5 mM (FIG. 6, Results 5, 6 vs 2)", "value": "progressively greater abrogation of salvage"}]}
{"smiles": "O=c1cc[nH]c(=O)[nH]1", "note": "[uracil]", "values": [{"measurement": "efficacy and toxicity to primary gingival cells (HGEP)", "setting": "[4]; FIG. 9, 72 hours", "value": "effective and non-toxic"}, {"measurement": "prevention of 5-FU toxicity", "setting": "[4]; excess of uracil together with 5-FU 10 μM", "value": "prevented 5-FU toxicity"}, {"measurement": "protection against 5-FU toxicity", "setting": "[4]; further addition of uracil at 1.25 mM to adenine and orotate 2.5 mM each (Result Y)", "value": "significant protection"}, {"measurement": "protection against 5-FU toxicity", "setting": "[4]; further addition of uracil at 2.5 mM to adenine and orotate 2.5 mM each (Result Z)", "value": "even more significant protection"}, {"measurement": "effect on cytoprotection by adenine 2.5 mM in combination with orotate 2.5 mM", "setting": "Caco-2 cells; further addition of uracil 1.25 and 2.5 mM, 10 μM 5-FU, data not shown", "value": "reversal of the cytoprotection"}]}
